Test results reported in paper PMC4979877 (2016).

Test system: non-cognate duplex (DNA, duplex) GGGTGAGGAGGAGGGAGATCGGTC/TGACCGATCTCCCTCCTCCTCACCC
Assay: fluorescence titration
Conditions: 0.025 M Tris-HCl, pH 7.5, room temperature; probe 12 µM; fluorescence only 1.5-fold up

With CN(C)CCCNC(=O)CCNC(=O)c1cc(NC(=O)c2cc(NC(=O)c3cc(NC(=O)c4cc(NC(=O)C(N)CCNC(=O)c5cc(NC(=O)c6cc(NC(=O)c7cc(NC(=O)c8nc(NC(=O)CCCNC(=O)CCc9cn(-c%10cc%11ccc(O)cc%11oc%10=O)nn9)cn8C)cn7C)cn6C)cn5C)cn4C)cn3C)cn2C)cn1C (stereo not shown) the binding was “weak”.
